According to US8153773B2, “Synthesis and use of anti-reverse phosphorothioate analogs of the messenger RNA cap” (Board of Supervisors of Louisiana State University and …, priority 2007, dated 2012):

Tested on: HC11 cells
Test: Time course of luciferase expression after nucleoporation of HC11 cells
Type: cell-based, mouse
Details: luciferase activity up to 10 h after nucleoporation, normalized for Luc-A60 delivered
Protocol: Two methods, electroporation and nucleoporation, were used to deliver RNA into cells. In case of electroporation, 5 μg of RNA were introduced into 10^7 HC11 cells in a total volume 400 μl of serum-reduced RPMI 1640 medium in a Gene pulser cuvette (4 mm gap) with a Bio-Rad Genepulser™ set at 0.22 kV and 960 μF. Following discharge, the cells were washed twice with PBS, centrifuged for 2 min 300×g at room temperature, resuspended in prewarmed complete medium, and placed at 37° C. Nucleoporation was performed with an Amaxa Nucleofector II (Amaxa Biosystems) in accordance with manufacture's recommendations. One microgram of RNA was introduced into 10^6 HC11 cells with Nucleofector Solution V and the set of recommended regimens (program T-024).
For cytoplasmic RNA extraction, 2×10^5 cells were lysed in 175 μl of lysis buffer (50 mM Tris-HCl, pH 8.0, 140 mM NaCl, 1.5 mM MgCl2, 0.5% (v/v) Igepal (Sigma), and 1 mM dithiothreitol). […] Luciferase activity of cell extracts was measured according to the manufacturer's protocol (Promega).
We also determined the overall accumulation of luciferase, as measured by its enzymatic activity, as a function of time for mRNAs capped with m2^7,2′-OGp3G, m2^7,2′-OGppspG (D1), and m2^7,2′-OGppspG (D2). […] Luciferase activity measured in the supernatant was normalized for the amount of Luc-A60 delivered into the cells. […]

Substance: m2^7,2′-OGppspG (D2) [Compound 5b]
- overall accumulation of luciferase: The most luciferase accumulated
